Data: patent US8168592B2 (Amgen Inc., priority 2005, dated 2012)
Read-outs that look alike come from different tables or passages of the source. Square brackets hold non-standard residues; d marks the D form. Peptide text beside a SMILES is read from it. 1Nal = N[C@@H](Cc1cccc2ccccc12)C(=O)O; hArg = N=C(N)NCCCC[C@H](N)C(=O)O; Cit = NC(=O)NCCC[C@H](N)C(=O)O; Phg = N[C@H](C(=O)O)c1ccccc1

Key:
[1] = solubility in aqueous conjugation buffers; assay type: physicochemical
Description: Co-solvent mediated conjugation of vehicle to CGRP peptide antagonists. […] In an attempt to better solubilize these less soluble peptides during the conjugation reaction, and thereby improve conjugate yields, a variety of alcohol co-solvents were tested in the conjugation reaction.

[2] = biological target: T1, CGRP1 receptor (human neuroblastoma cell (SK-N-MC) membrane) (Homo sapiens, UniProt O60894+Q16602); experiment: CGRP1 binding assay (125I-hαCGRP displacement)
T1 construct: human neuroblastoma cell (SK-N-MC) membrane suspension; purchased PerkinElmer; host or cells: SK-N-MC human neuroblastoma cell membranes (endogenous receptor)
Description: CGRP1 binding experiments. […] The plates were incubated at room temperature for 2 hour with shaking at 60 rpm, then the contents of each well were filtered over 0.5% polyethyleneimine (PEI)-treated (at least one hour) GF/C 96-well filter plates. The GF/C filter plates were washed 6 times with ice-cold 50 mM Tris, pH 7.5 and dried in an oven at 55 C for 1 hour. The bottoms of the GF/C plates were then sealed, and 40 μl Microscint™ 20 was added to each well, then the tops of the GF/C plates were sealed with TopSeal™-A, a press-on adhesive sealing film, and the GF/C plates were counted with TopCount NXT (Packard). The data were analyzed by using ActivityBase (IDBS) or Prizm (GraphPad) software.

[3] = monkey pharmacokinetic studies; conditions: cynomolgus monkey, in vivo, iv, 6 mg/kg
Description: Monkey pharmacokinetic studies. […] A complete blood chemistry panel was performed on each monkey prior to each study day to obtain baseline values and ensure hematological recovery. A catheter was placed in the cephalic vein of three male Cynomolgus monkeys (Macaca fascicularis) for blood sampling during the study. For the intravenous (iv) leg of the study, a catheter was also placed in a saphenous vein for infusion of test compound. On each study day, the monkeys were placed in restraining chairs for the first 4 h of the study to facilitate drug administration and blood sampling. For administration of antagonist, each monkey received solubilized peptide (dose and SEQ ID listed in Table 11 below) either as a 30-min intravenous infusion (4 mL/kg/h) or as a single subcutaneous bolus (approx. 1.0 mL/animal). Blood samples were collected from each study animal at various times during and after drug administration, plasma samples (100 μL) were isolated by centrifugation and stored at −70° C. until analysis. For monkeys receiving intravenous infusion, such a sample was also taken at 20 min during the infusion.

[4] = biological target: T2, CGRP1 receptor (Homo sapiens, UniProt O60894+Q16602); experiment: in vitro CGRP1 receptor mediated cAMP assay in SK-N-MC cells; assay type: cell-based; conditions: read-out: IC50
T2 construct: SK-N-MC cells express CRLR and RAMP1, which form CGRP1 receptor; endogenous in cells; host or cells: SK-N-MC human neuroblastoma cells
Summary of the method: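 Human SK-N-MC neuroblastoma cells, which endogenously express CRLR/RAMP1, were plated two days before assay and preincubated in plasma-free medium for 15 minutes at room temperature. Cells were then lysed for 30 minutes at 37° C, and cAMP in the lysates was quantified by competitive cAMP-AP chemiluminescent ELISA.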

[5] = in vitro stability in 10% human plasma, LC-MS/MS; assay type: in vitro ADME; conditions: room temperature, 100 ng/ml
Description: Consequently, the stability of select, non-PEGylated analogs was evaluated in vitro in the presence of 10% rat or human plasma. Briefly, samples of each peptide were diluted to 100 ng/ml into PBS containing 10% of rat or human plasma. Each sample was then incubated at room temperature and analyzed by LC-MS/MS to quantitate the intact peptide remaining at select time points over 6 hours.

[6] = in vitro stability in 5% mouse plasma, sandwich ELISA

T1 sequence (Q16602 23-461): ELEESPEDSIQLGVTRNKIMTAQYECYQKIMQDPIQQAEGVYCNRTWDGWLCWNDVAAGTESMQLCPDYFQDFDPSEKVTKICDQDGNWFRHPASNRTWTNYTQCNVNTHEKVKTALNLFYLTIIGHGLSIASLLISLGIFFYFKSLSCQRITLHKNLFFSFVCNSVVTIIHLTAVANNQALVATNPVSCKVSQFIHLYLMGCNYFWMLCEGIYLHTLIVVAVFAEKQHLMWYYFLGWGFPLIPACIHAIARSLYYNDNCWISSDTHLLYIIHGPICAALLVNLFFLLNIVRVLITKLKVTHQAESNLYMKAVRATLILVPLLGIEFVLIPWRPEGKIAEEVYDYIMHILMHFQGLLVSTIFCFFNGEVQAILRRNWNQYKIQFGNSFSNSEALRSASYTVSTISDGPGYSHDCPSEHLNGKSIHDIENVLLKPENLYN
T1 sequence (O60894 27-148): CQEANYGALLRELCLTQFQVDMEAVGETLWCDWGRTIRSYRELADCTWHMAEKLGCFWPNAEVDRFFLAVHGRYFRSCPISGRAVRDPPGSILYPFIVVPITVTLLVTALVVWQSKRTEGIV
T2 sequence (Q16602 23-461): as the sequence (Q16602 23-461) above
T2 sequence (O60894 27-148): as the sequence (O60894 27-148) above

## CC(=O)N[C@@H](Cc1c[nH]c2ccccc12)C(=O)N[C@H](C(=O)N[C@H](C(=O)N[C@@H](Cc1cnc[nH]1)C(=O)N[C@@H](CCCN=C(N)N)C(=O)N[C@@H](CC(C)C)C(=O)N[C@@H](C)C(=O)NCC(=O)N[C@@H](CC(C)C)C(=O)N[C@@H](CC(C)C)C(=O)N[C@@H](CO)C(=O)N[C@@H](CCCN=C(N)N)C(=O)N[C@@H](CO)C(=O)NCC(=O)NCC(=O)N[C@H](C(=O)N[C@H](C(=O)N[C@@H](CCCN=C(N)N)C(=O)N[C@@H](CCCCN)C(=O)N[C@@H](CC(N)=O)C(=O)N[C@@H](Cc1ccccc1)C(=O)N[C@H](C(=O)N1CCC[C@H]1C(=O)N[C@H](C(=O)N[C@@H](CC(=O)O)C(=O)N[C@H](C(=O)NCC(=O)N1CCC[C@H]1C(=O)N[C@@H](Cc1ccccc1)C(=O)N[C@@H](C)C(=O)N[C@@H](Cc1ccccc1)C(N)=O)C(C)C)[C@@H](C)O)C(C)C)C(C)C)C(C)C)[C@@H](C)O)C(C)C [SEQ. ID NO: 7]
[1]
  solubility in words: relatively soluble

## CC(C)[C@H](NC(=O)[C@H](CC(=O)O)NC(=O)[C@@H](NC(=O)[C@@H]1CCCN1C(=O)[C@@H](NC(=O)[C@@H](N)Cc1ccccc1)C(C)C)[C@@H](C)O)C(=O)NCC(=O)N1CCC[C@H]1C(=O)N[C@H](Cc1ccccc1)C(=O)N[C@@H](C)C(=O)N[C@@H](Cc1ccccc1)C(N)=O [compound 712]
[2]; Table 3B
  Ki: > 1000 nM

## 687 (Ac-WVTHRLAGLLSRSGGVVK(20 kDa PEG)NNFVPTDVGPFAF-NH2) [compound 687]
[2]; Table 3B
  Ki: 0.49 nM

## CC(C)[C@H](NC(=O)[C@H](CC(=O)O)NC(=O)[C@@H](NC(=O)[C@@H]1CCCN1C(=O)[C@@H](NC(=O)[C@@H](N)Cc1ccccc1)C(C)C)[C@@H](C)O)C(=O)NCC(=O)N1CCC[C@H]1C(=O)N[C@@H](Cc1ccccc1)C(=O)N[C@H](C)C(=O)N[C@@H](Cc1ccccc1)C(N)=O [compound 715]
[2]; Table 3B
  Ki: > 1000 nM

## CC(=O)N[C@@H](Cc1c[nH]c2ccccc12)C(=O)N[C@H](C(=O)N[C@H](C(=O)N[C@@H](Cc1c[nH]cn1)C(=O)N[C@@H](CCCNC(N)=O)C(=O)N[C@@H](CC(C)C)C(=O)N[C@@H](C)C(=O)NCC(=O)N[C@@H](CC(C)C)C(=O)N[C@@H](CC(C)C)C(=O)N[C@@H](CO)C(=O)N[C@@H](CCCNC(N)=O)C(=O)N[C@@H](CO)C(=O)NCC(=O)NCC(=O)N[C@H](C(=O)N[C@H](C(=O)N[C@@H](CCCCNC(=N)N)C(=O)N[C@@H](CCCCN)C(=O)N[C@@H](CC(N)=O)C(=O)N[C@@H](Cc1ccccc1)C(=O)N[C@H](C(=O)N1CCC[C@H]1C(=O)N[C@H](C(=O)N[C@@H](CC(=O)O)C(=O)N[C@H](C(=O)NCC(=O)N1[C@H](C(=O)N[C@@H](Cc2ccccc2)C(=O)N[C@@H](C)C(=O)N[C@@H](Cc2ccccc2)C(N)=O)C[C@@H]2CCCC[C@@H]21)C(C)C)[C@@H](C)O)C(C)C)C(C)C)C(C)C)[C@@H](C)O)C(C)C [SEQ ID NO: 658]
[3]
  AUC0-inf: 17000 ng·h/mL
  AUC0-t: 16900 ng·h/mL
  MRT: 25.2 min
  Vd: 0.174 L/kg
  clearance: 6.65 mL/min/kg
  half-life: 48 min

## Ac-WVTHRLAGLLSRSGGVVKNNFVPTDVGPFAF-NH2 [compound 5]
[4]; Table 3, unconjugated CGRP peptide analogs, n = 2-4
  IC50: 0.14 nM
[4]; Table 4, 20 k PEG-conjugated vs unconjugated peptides, n = 2-4
  IC50: 0.14 nM
[2]; Table 3B
  Ki: 0.06 nM

## CC(=O)N[C@@H](Cc1c[nH]c2ccccc12)C(=O)N[C@H](C(=O)N[C@H](C(=O)N[C@@H](Cc1c[nH]cn1)C(=O)N[C@@H](CCCNC(N)=O)C(=O)N[C@@H](CC(C)C)C(=O)N[C@@H](C)C(=O)NCC(=O)N[C@@H](CC(C)C)C(=O)N[C@@H](CC(C)C)C(=O)N[C@@H](CO)C(=O)N[C@@H](CCCNC(N)=O)C(=O)N[C@@H](CO)C(=O)NCC(=O)NCC(=O)N[C@H](C(=O)N[C@H](C(=O)N[C@@H](CCCCNC(=N)N)C(=O)N[C@@H](CCCCN)C(=O)N[C@@H](CC(N)=O)C(=O)N[C@@H](Cc1ccccc1)C(=O)N[C@H](C(=O)N1CCC[C@H]1C(=O)N[C@H](C(=O)N[C@@H](CC(=O)O)C(=O)N[C@H](C(=O)NCC(=O)N1CCC[C@H]1C(=O)N[C@@H](Cc1cccc2ccccc12)C(=O)N[C@@H](C)C(=O)N[C@@H](Cc1ccccc1)C(N)=O)C(C)C)[C@@H](C)O)C(C)C)C(C)C)C(C)C)[C@@H](C)O)C(C)C [compound 674] (Ac-WVTH[Cit]LAGLLS[Cit]SGGVV[hArg]KNFVPTDVGP[1Nal]AF-NH2)
[4]; Table 2A
  IC50: 1.31 to 1.51 nM
[2]; Table 3A
  Ki: 0.64 nM

## CC(C)[C@H](NC(=O)[C@H](CC(=O)O)NC(=O)[C@@H](NC(=O)[C@@H]1CCCN1C(=O)[C@@H](NC(=O)[C@@H](N)Cc1ccccc1)C(C)C)[C@@H](C)O)C(=O)NCC(=O)N1CCC[C@H]1C(=O)N[C@@H](Cc1ccccc1)C(=O)N[C@@H](C)C(=O)N[C@H](Cc1ccccc1)C(N)=O [compound 720]
[2]; Table 3B
  Ki: > 1000 nM

## CC(=O)N[C@@H](Cc1c[nH]c2ccccc12)C(=O)N[C@H](C(=O)N[C@H](C(=O)N[C@@H](Cc1cnc[nH]1)C(=O)N[C@@H](CCCN=C(N)N)C(=O)N[C@@H](CC(C)C)C(=O)N[C@@H](C)C(=O)NCC(=O)N[C@@H](CC(C)C)C(=O)N[C@@H](CC(C)C)C(=O)N[C@@H](CO)C(=O)N[C@@H](CCCN=C(N)N)C(=O)N[C@@H](CO)C(=O)NCC(=O)NCC(=O)N[C@H](C(=O)N[C@H](C(=O)N[C@@H](CCCN=C(N)N)C(=O)N[C@@H](CCCCN)C(=O)N[C@@H](CC(N)=O)C(=O)N[C@@H](Cc1ccccc1)C(=O)N[C@H](C(=O)N1CCC[C@H]1C(=O)N[C@H](C(=O)N[C@@H](CC(=O)O)C(=O)N[C@H](C(=O)NCC(=O)N1CCC[C@H]1C(=O)N[C@@H](Cc1ccccc1)C(=O)N[C@@H](C)C(=O)N[C@@H](Cc1ccccc1)C(N)=O)C(C)C)[C@@H](C)O)C(C)C)C(C)C)C(C)C)[C@@H](C)O)C(C)C [SEQ ID NO: 7]
[5]; 0 h
  % Remaining: 100.0%
[5]; 0.17 h
  remaining at 0.17 h, 100 ng/ml: 60.3%
[5]; 0.5 h
  remaining at 0.5 h, 100 ng/ml: 13.8%
[5]; 1 h
  remaining at 1 h, 100 ng/ml: 4.9%
[5]; 2 h
  remaining at 2 h, 100 ng/ml: 0%
[5]; 3 h
  remaining at 3 h, 100 ng/ml: 0%
[5]; 4 h
  remaining at 4 h, 100 ng/ml: 0%
[5]; 5 h
  remaining at 5 h, 100 ng/ml: 0%
[5]; 6 h
  remaining at 6 h, 100 ng/ml: 0%
[6]
  recovery at 0 h, 2 mg/ml: 112 ± 1.8%
  recovery at 4 h, 2 mg/ml: 46.1 ± 60.1%
  recovery at 24 h, 2 mg/ml: 2.51 ± 0.573%
  recovery at 48 h, 2 mg/ml: 1.81 ± 0.754%

## CC(C)C[C@H](NC(=O)CNC(=O)[C@H](C)NC(=O)[C@H](CC(C)C)NC(=O)[C@H](CCCNC(=N)N)NC(=O)[C@H](Cc1c[nH]cn1)NC(=O)[C@@H](NC(=O)[C@@H](NC(=O)[C@@H](N)c1ccccc1)C(C)C)[C@@H](C)O)C(=O)N[C@@H](CC(C)C)C(=O)N[C@@H](CO)C(=O)N[C@@H](CCCNC(=N)N)C(=O)N[C@@H](CO)C(=O)NCC(=O)NCC(=O)N[C@H](C(=O)N[C@H](C(=O)N[C@@H](CCCCN)C(=O)N[C@@H](CC(N)=O)C(=O)N[C@@H](CC(N)=O)C(=O)N[C@@H](Cc1ccccc1)C(=O)N[C@H](C(=O)N1CCC[C@H]1C(=O)N[C@H](C(=O)N[C@@H](CC(=O)O)C(=O)N[C@H](C(=O)NCC(=O)N1CCC[C@H]1C(=O)N[C@@H](Cc1ccccc1)C(=O)N[C@@H](C)C(=O)N[C@@H](Cc1ccccc1)C(N)=O)C(C)C)[C@@H](C)O)C(C)C)C(C)C)C(C)C [compound 703] (H-[Phg]VTHRLAGLLSRSGGVVKNNFVPTDVGPFAF-NH2)
[2]; Table 3B
  Ki: 0.19 nM

## CC(=O)NCSC[C@H](NC(=O)[C@@H](NC(=O)[C@H](C)NC(=O)[C@@H](NC(=O)[C@H](CC(=O)O)NC(=O)[C@H](CO)NC(=O)[C@H](C)N)[C@@H](C)O)[C@@H](C)O)C(=O)N[C@H](C(=O)N[C@H](C(=O)N[C@@H](Cc1c[nH]cn1)C(=O)N[C@@H](CCCNC(=N)N)C(=O)N[C@@H](CC(C)C)C(=O)N[C@@H](C)C(=O)NCC(=O)N[C@@H](CC(C)C)C(=O)N[C@@H](CC(C)C)C(=O)N[C@@H](CO)C(=O)N[C@@H](CCCNC(=N)N)C(=O)N[C@@H](CO)C(=O)NCC(=O)NCC(=O)N[C@H](C(=O)N[C@H](C(=O)N[C@@H](CCCCN)C(=O)N[C@@H](CC(N)=O)C(=O)N[C@@H](CC(N)=O)C(=O)N[C@@H](Cc1ccccc1)C(=O)N[C@H](C(=O)N1CCC[C@H]1C(=O)N[C@H](C(=O)N[C@@H](CC(N)=O)C(=O)N[C@H](C(=O)NCC(=O)N[C@@H](CO)C(=O)N[C@@H](CCCCN)C(=O)N[C@@H](C)C(=O)N[C@@H](Cc1ccccc1)C(N)=O)C(C)C)[C@@H](C)O)C(C)C)C(C)C)C(C)C)[C@@H](C)O)C(C)C [compound 707]
[2]; Table 3B
  Ki: 20.8 nM

## H-FVPTDVAPFAF-NH2 [compound 717]
[2]; Table 3B
  Ki: > 1000 nM

## Ac-WVTHRLAGLLSRSGGVVRCNFVPTDVGPFAF-NH2 [compound 680]
[2]; Table 3B
  Ki: 0.58 nM
